Data reported in PubChem BioAssay AID222 (DTP/NCI, 2004).
“And” between values parts separate entries of the source, which are not always exact repeats. Equal values may be shown once. Inconclusive results and toxic doses are left out.

Tested on: C57BL/6 mice, intracerebral ependymoblastoma, median survival T/C
Test: NCI In Vivo Anticancer Drug Screen. Data for tumor model Ependymoblastoma (intracerebral) in C57BL/6 mice
Conditions: endpoint: median survival time, higher = longer survival
Description: The antitumor activity of compounds was measured in mice bearing transplantable tumors. Survival or tumor size were measured and the results are expressed as the measurement made in the treated group (T) divided by the measurement made in the vehicle treated control group (C). The tumor model used in this assay is Ependymoblastoma (intracerebral) in C57BL/6 mice

[1] = dose: 4.0 mg/kg/injection, schedule: Q01DX005 (ip), vehicle: saline with Tween-80
[2] = dose: 16.0 mg/kg/injection, schedule: Q01DX005 (ip), vehicle: saline with Tween-80
[3] = dose: 32.0 mg/kg/injection, schedule: Q01DX005 (ip), vehicle: saline with Tween-80
[4] = dose: 32.0 mg/kg/injection, schedule: Q01DX005 (ip), vehicle: Klucel (hydroxypropylcellulose) (HPC)
[5] = dose: 64.0 mg/kg/injection, schedule: Q01DX005 (ip), vehicle: Klucel (hydroxypropylcellulose) (HPC)
[6] = dose: 32.0 mg/kg/injection, schedule: Q01DX005 (ip), vehicle: saline

With COc1cccc2c1C(=O)c1c(O)c3c(c(O)c1C2=O)C[C@@](O)(/C(C)=N/NC(=O)c1ccccc1)C[C@@H]3OC1CC(N)C(O)C(C)O1 (stereo not given in full) the T/C (dose: 1.0 mg/kg/injection, schedule: Q01DX009 (ip), vehicle: saline) was 108 % of control, the T/C (dose: 2.0 mg/kg/injection, schedule: Q01DX005 (ip), vehicle: saline with Tween-80) was 100 % of control and the T/C (dose: 2.0 mg/kg/injection, schedule: Q01DX009 (ip), vehicle: saline) was 99 % of control. For the same compound, the T/C [1] was 103 % of control and the T/C (dose: 4.0 mg/kg/injection, schedule: Q01DX009 (ip), vehicle: saline) was 113 % of control.
COc1ccc2c(c1O)-c1cc(O)cc3c1C(C2)N(CCCl)CC3 (stereo not given) was tested, and the T/C [1] was 95 % of control and 98 % of control, the T/C (dose: 8.0 mg/kg/injection, schedule: Q01DX005 (ip), vehicle: saline with Tween-80) was 98 % of control and the T/C [2] was 94 % of control and 100 % of control. For the same compound, the T/C [3] was 110 % of control.
In the case of COC1C(O)C(C)OC(OC2C(Oc3cccc4c(O)c5c(=O)oc6ccc(C)c7c(=O)oc(c34)c5c67)OC(C)C(O)C2O)C1O (stereo not given), the T/C (dose: 2.0 mg/kg/injection, schedule: Q01DX005 (ip), vehicle: Klucel (hydroxypropylcellulose) (HPC)) is reported as 105 % of control and 122 % of control and 124 % of control, the T/C (dose: 4.0 mg/kg/injection, schedule: Q01DX005 (ip), vehicle: Klucel (hydroxypropylcellulose) (HPC)) is reported as 95 % of control and 106 % of control and the T/C (dose: 8.0 mg/kg/injection, schedule: Q01DX005 (ip), vehicle: Klucel (hydroxypropylcellulose) (HPC)) is reported as 90 % of control and 111 % of control and 122 % of control. For the same compound, the T/C (dose: 16.0 mg/kg/injection, schedule: Q01DX005 (ip), vehicle: Klucel (hydroxypropylcellulose) (HPC)) was 99 % of control and 113 % of control and 124 % of control, the T/C [4] was 97 % of control and 103 % of control and the T/C [5] was 99 % of control and 105 % of control and 107 % of control.
With CC/C(=C(/CC)c1ccc(O)cc1)c1ccc(O)cc1 the T/C (dose: 8.0 mg/kg/injection, schedule: Q01DX005 (ip), vehicle: saline) was 94 % of control, the T/C [2] was 101 % of control and the T/C (dose: 16.0 mg/kg/injection, schedule: Q01DX005 (ip), vehicle: saline) was 100 % of control. The T/C [3] was 112 % of control, the T/C [6] was 99 % of control and the T/C (dose: 64.0 mg/kg/injection, schedule: Q01DX005 (ip), vehicle: saline with Tween-80) was 100 % of control. The T/C (dose: 64.0 mg/kg/injection, schedule: Q01DX005 (ip), vehicle: saline) was 110 % of control.
COc1cccc2c1C(=O)c1c(O)c3c(c(O)c1C2=O)C[C@@](O)(C(=O)CO)C[C@@H]3OC1CC(N)C(O)C(C)O1 (stereo not given in full) was tested, and the T/C (dose: 0.12 mg/kg/injection, schedule: Q01DX001 (ip), vehicle: saline) was 96 % of control, the T/C (dose: 0.25 mg/kg/injection, schedule: Q01DX001 (ip), vehicle: saline) was 86 % of control and the T/C (dose: 0.25 mg/kg/injection, schedule: Q01DX005 (ip), vehicle: saline) was 108 % of control. For the same compound, the T/C (dose: 0.25 mg/kg/injection, schedule: Q01DX009 (ip), vehicle: saline) was 107 % of control, the T/C (dose: 0.25 mg/kg/injection, schedule: Q07DX003 (ip), vehicle: saline) was 106 % of control and the T/C (dose: 0.25 mg/kg/injection, schedule: Q## X006 (ip), vehicle: saline) was 100 % of control. The T/C (dose: 0.5 mg/kg/injection, schedule: Q01DX001 (ip), vehicle: saline) was 88 % of control, the T/C (dose: 0.5 mg/kg/injection, schedule: Q01DX005 (ip), vehicle: saline) was 108 % of control and the T/C (dose: 0.5 mg/kg/injection, schedule: Q01DX009 (ip), vehicle: saline) was 103 % of control. The T/C (dose: 0.5 mg/kg/injection, schedule: Q## X006 (ip), vehicle: saline) was 119 % of control, the T/C (dose: 0.5 mg/kg/injection, schedule: Q#A X002 (ip), vehicle: saline) was 105 % of control and the T/C (dose: 1.0 mg/kg/injection, schedule: Q01DX001 (ip), vehicle: saline) was 96 % of control (2×) and 100 % of control. The T/C (dose: 1.0 mg/kg/injection, schedule: Q01DX005 (ip), vehicle: saline) was 110 % of control, the T/C (dose: 1.0 mg/kg/injection, schedule: Q01DX005 (oral), vehicle: saline) was 100 % of control and the T/C (dose: 1.0 mg/kg/injection, schedule: Q07DX003 (ip), vehicle: saline) was 96 % of control. The T/C (dose: 1.0 mg/kg/injection, schedule: Q## X006 (ip), vehicle: saline) was 110 % of control, the T/C (dose: 1.0 mg/kg/injection, schedule: Q#A X002 (ip), vehicle: saline) was 97 % of control and the T/C (dose: 2.0 mg/kg/injection, schedule: Q01DX001 (ip), vehicle: saline) was 104 % of control and 106 % of control and 111 % of control. The T/C (dose: 2.0 mg/kg/injection, schedule: Q01DX005 (ip), vehicle: saline) was 103 % of control, the T/C (dose: 2.0 mg/kg/injection, schedule: Q07DX003 (ip), vehicle: saline) was 101 % of control and the T/C (dose: 2.0 mg/kg/injection, schedule: Q## X006 (ip), vehicle: saline) was 119 % of control. For the same compound, the T/C (dose: 2.0 mg/kg/injection, schedule: Q#A X002 (ip), vehicle: saline) was 93 % of control, the T/C (dose: 4.0 mg/kg/injection, schedule: Q01DX001 (oral), vehicle: saline) was 101 % of control and 109 % of control and the T/C (dose: 4.0 mg/kg/injection, schedule: Q01DX005 (oral), vehicle: saline) was 94 % of control. The T/C (dose: 4.0 mg/kg/injection, schedule: Q#A X002 (ip), vehicle: saline) was 101 % of control and 108 % of control, the T/C (dose: 8.0 mg/kg/injection, schedule: Q01DX001 (oral), vehicle: saline) was 92 % of control and 97 % of control and the T/C (dose: 8.0 mg/kg/injection, schedule: Q01DX005 (oral), vehicle: saline) was 100 % of control. The T/C (dose: 8.0 mg/kg/injection, schedule: Q#A X002 (ip), vehicle: saline) was 97 % of control, the T/C (dose: 16.0 mg/kg/injection, schedule: Q01DX001 (ip), vehicle: saline) was 101 % of control and the T/C (dose: 16.0 mg/kg/injection, schedule: Q01DX001 (oral), vehicle: saline) was 96 % of control and 98 % of control and 106 % of control. The T/C (dose: 16.0 mg/kg/injection, schedule: Q#A X002 (ip), vehicle: saline) was 89 % of control, the T/C (dose: 32.0 mg/kg/injection, schedule: Q01DX001 (ip), vehicle: saline) was 100 % of control and the T/C (dose: 32.0 mg/kg/injection, schedule: Q01DX001 (oral), vehicle: saline) was 89 % of control and 92 % of control and 109 % of control. For the same compound, the T/C (dose: 32.0 mg/kg/injection, schedule: Q#A X002 (ip), vehicle: saline) was 86 % of control, the T/C (dose: 64.0 mg/kg/injection, schedule: Q01DX001 (oral), vehicle: saline) was 103 % of control and 107 % of control and 86 % of control and the T/C (dose: 64.0 mg/kg/injection, schedule: Q#A X002 (ip), vehicle: saline) was 88 % of control. The T/C (dose: 128.0 mg/kg/injection, schedule: Q01DX001 (ip), vehicle: saline) was 88 % of control, the T/C (dose: 128.0 mg/kg/injection, schedule: Q01DX001 (oral), vehicle: saline) was 93 % of control and 103 % of control and 107 % of control and the T/C (dose: 128.0 mg/kg/injection, schedule: Q#A X002 (ip), vehicle: saline) was 86 % of control. The T/C (dose: 256.0 mg/kg/injection, schedule: Q01DX001 (oral), vehicle: saline) was 103 % of control and 111 % of control.
In the case of CCC(=O)O[C@H]1CC[C@H]2[C@@H]3[C@@H](C)CC4=CC(=O)CC[C@]4(C)[C@H]3CC[C@]12C, the T/C [4] is reported as 104 % of control, the T/C [5] is reported as 105 % of control and 106 % of control and the T/C (dose: 128.0 mg/kg/injection, schedule: Q01DX001 (ip), vehicle: Klucel (hydroxypropylcellulose) (HPC)) is reported as 106 % of control. For the same compound, the T/C (dose: 128.0 mg/kg/injection, schedule: Q01DX005 (ip), vehicle: Klucel (hydroxypropylcellulose) (HPC)) was 105 % of control and 111 % of control, the T/C (dose: 128.0 mg/kg/injection, schedule: Q01DX005 (oral), vehicle: Klucel (hydroxypropylcellulose) (HPC)) was 109 % of control and the T/C (dose: 256.0 mg/kg/injection, schedule: Q01DX001 (ip), vehicle: Klucel (hydroxypropylcellulose) (HPC)) was 93 % of control. The T/C (dose: 256.0 mg/kg/injection, schedule: Q01DX005 (ip), vehicle: Klucel (hydroxypropylcellulose) (HPC)) was 103 % of control and 113 % of control, the T/C (dose: 256.0 mg/kg/injection, schedule: Q01DX005 (oral), vehicle: Klucel (hydroxypropylcellulose) (HPC)) was 97 % of control and the T/C (dose: 512.0 mg/kg/injection, schedule: Q01DX001 (ip), vehicle: Klucel (hydroxypropylcellulose) (HPC)) was 103 % of control. The T/C (dose: 512.0 mg/kg/injection, schedule: Q01DX005 (ip), vehicle: Klucel (hydroxypropylcellulose) (HPC)) was 105 % of control and 107 % of control, the T/C (dose: 512.0 mg/kg/injection, schedule: Q01DX005 (oral), vehicle: Klucel (hydroxypropylcellulose) (HPC)) was 90 % of control and the T/C (dose: 1024.0 mg/kg/injection, schedule: Q01DX001 (ip), vehicle: Klucel (hydroxypropylcellulose) (HPC)) was 96 % of control. For the same compound, the T/C (dose: 1024.0 mg/kg/injection, schedule: Q01DX005 (oral), vehicle: Klucel (hydroxypropylcellulose) (HPC)) was 113 % of control.
O=[N+]([O-])O.[Ga] was tested, and the T/C [6] was 110 % of control.
CN(C)C(=O)N(CCCl)N=O was tested, and the T/C (dose: 16.0 mg/kg/injection, schedule: Q01DX001 (ip), vehicle: other) was 154 % of control and the T/C (dose: 20.0 mg/kg/injection, schedule: Q01DX001 (ip), vehicle: other) was 279 % of control.
In the case of Nc1nc(=S)c2ncn(C3OC(CO)CC3O)c2[nH]1 (stereo not given), the T/C (dose: 5.0 mg/kg/injection, schedule: Q01DX005 (ip), vehicle: saline) is reported as 99 % of control and the T/C (dose: 10.0 mg/kg/injection, schedule: Q01DX005 (ip), vehicle: saline) is reported as 99 % of control.
